Test results as given in article PMC8408929, “Influence of osmolality on gastrointestinal fluid volume and drug absorption: potential impact on oral salt supplementation” (Journal of Pharmaceutical Health Care and Sciences, 2021).

Experiments:
intestine = tested on: intestine; design: method as in PMID 28450238; settings: administered in purified water vs isosmotic solution; cited from earlier work
[1] = design: method as in not given; settings: low-permeability drugs; ref not given; cited from earlier work
[2] = tested on: rat intestine (jejunum, ileum and colon); test: in situ rat intestinal closed loop method; settings: 30 min
Procedure: The in situ rat intestinal closed loop method was carried out as described previously. Male Wistar rats (7–8 weeks old; 250 ± 20 g body weight) were fasted overnight and anesthetized by intraperitoneal injection of a triple anesthetic combination (medetomidine, midazolam and butorphanol). The abdominal cavity was opened and an intestinal loop (jejunum, 10 cm; ileum, 10 cm; colon, 7 cm) was made by cannulation into both ends of the jejunum, ileum and colon with silicone tubing (i.d., 3 mm). The intestinal contents were washed out through the cannulas with saline. […] One mL of test compound solution (10 μM) was introduced into the intestinal loop and both ends of the loop were ligated. At the designated times (30 min), test compound solution in the loop was collected by flushing with air (for measuring the luminal concentration of test compound, Cout), and then made up to 10 mL with buffer solution (for measuring the amount of test compound, Xout). The volume of luminal water (mL) in each segment of intestine was calculated using the following equation: 1 Vwater=Xout/Cout where Vwater (mL) is the water volume in each segment of intestine, Cout is the luminal concentration of test compound (μM), and Xout is the amount of test compound (μmol). The fraction absorbed of test compound was calculated from the remaining amount of test compound in each intestinal loop. Final results were normalized to the surface area calculated from the radius and length of each segment of intestine. The radii of the small and large intestines reported by Fagerholm et al. were used (0.178 cm and 0.252 cm, respectively).
Concentrations of FD-4 were measured with a microplate fluorescence reader (VarioskanTM Flash 2.4; Thermo Fisher Scientific Inc., Kanagawa, Japan) at excitation/emission wavelengths of 492/515 nm.
An Agilent Eclitse plus (C18, 50 × 2.1 mm, 5 μm) was used as the analytical column. […] Analyst software version 1.4.2 (AB SCIEX) was used for data manipulation.

Cc1cc(=O)n(-c2ccccc2)n1C [antipyrine]
fraction absorbed, purified water compared with isosmotic solution (intestine): no significant difference

CC(C)NCC(O)COc1ccc(CC(N)=O)cc1 (stereo not shown) [atenolol]
fraction absorbed, purified water compared with isosmotic solution (intestine): significantly greater

NS(=O)(=O)c1cc(C(=O)O)c(NCc2ccco2)cc1Cl [furosemide]
BCS Class [1]: Class IV

Cc1ccccc1C(=O)Nc1ccc(C(=O)N2CCCC(O)c3cc(Cl)ccc32)c(C)c1 (stereo not shown) [tolvaptan]
BCS Class [1]: Class IV

fluorescein isothiocyanate-dextran 4000 [FD-4]
luminal concentration ([2]; colon, 10 μM dosed in hyperosmotic solution (10% NaCl)): 6.25 ± 0.15 µM | luminal concentration ([2]; colon, 10 μM dosed in purified water): 27.4 ± 2.0 µM | luminal concentration ([2]; ileum, 10 μM dosed in hyperosmotic solution (10% NaCl)): 6.47 ± 0.68 µM | luminal concentration ([2]; ileum, 10 μM dosed in purified water): 13.2 ± 0.7 µM | luminal concentration ([2]; jejunum, 10 μM dosed in hyperosmotic solution (10% NaCl)): 5.30 ± 0.31 µM | luminal concentration ([2]; jejunum, 10 μM dosed in purified water): 13.7 ± 0.8 µM
